Assay results from patent US20230404922A1, “MICROSPHERE FORMULATIONS COMPRISING BTK INHIBITORS AND METHODS FOR MAKING AND USING THE SAME” (Oakwood Laboratories, LLC, priority 2021, published 2023).

Tests used:
[1] = cited from earlier work

For `C=CC(=O)N1CCC[C@@H](n2nc(-c3ccc(Oc4ccccc4)cc3)c3c(N)ncnc32)C1` [ibrutinib, Ibrutinib], the “solubility in dichloromethane (DCM)” value (DCM) is listed as greater than 300 mg/g, the aqueous solubility (water) is listed as less than 2.5 mg/g and the pKa [1] is listed as “about 3.74”.
